The subject of one series is Eco DH5α. Briefly: MIC and MBC by serial dilution in 96-well plate. The class given is cell-based, Escherichia coli. Conditions: Table 7. In a few lines: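 Log-phase bacteria in rich or minimal medium were adjusted to OD600=0.08, diluted 100-fold, and mixed 1:1 with 2-fold serial peptide dilutions (final 0–32 μg/mL). Plates were incubated at the optimal temperature without shaking. MBC is the lowest peptide concentration yielding no colonies.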

Series [1] has as its system Xanthomonas campestris pv. campestris strain Xcc17. Nature of the series: MIC and MBC by serial dilution in 96-well plate. The class given is cell-based. The settings on record: Xcc Xcc17; Table 7. On the procedure: (§1) The effect of peptide length on the antimicrobial activity was investigated by deciding the minimal inhibitory concentration (MIC) and minimal bactericidal concentration (MBC) for each peptide against the pathogen with the media and growth conditions of phytopathogenic bacteria and E. coli as described in Table 1. Single bacterial colony grown on an optimal rich agar medium was picked, and each grew in 3 mL of the same rich liquid medium for 4 to 6 h.
(§2) For experiments carried out in the rich medium, the bacterial broth culture was then diluted in the same medium to give a final concentration of OD600=0.08, and then further diluted 100 folds in the same medium.
(§3) For experiments carried out in the minimal medium, the bacterial cells were collected from the bacterial liquid culture by centrifugation, re-suspended in an optimal minimal medium to give a final concentration of OD600=0.08, and then further diluted 100 folds in the same minimal medium.
(§4) Fifty microliters of serially diluted peptides (2-fold the final concentration) were added in a 96-well polystyrene plate with 50 μL of the bacterial culture. The final concentrations of peptides were 0, 2, 4, 8, 16 and 32 μg/mL. The plates were incubated at an optimal temperature without shaking.
(§5) MBC was determined as the lowest peptide concentration at which no colonies formed.

Series [2] concerns Xanthomonas euvesicatoria strain Xvt28. Nature of the series: MIC and MBC by serial dilution in 96-well plate. The class given is cell-based. The settings on record: Xev Xvt28; Table 7. Here is the method: as §1, §2, §3, §4, §5
Another series deals with Botrytis cinerea. The class given is cell-based. The settings on record: Bc; optimal minimal medium, crude peptides (Table 9).
The next series concerns Cgl FST02. The class given is cell-based, Colletotricum gloeosporioides. The settings on record: Cgl FST02; optimal minimal medium, crude peptides (Table 9).
The test system of series [3] is bacteria, fungal spores, and fungal mycelia. The class given is cell-based. The settings on record: SYTOX Green, crude peptides, room temperature in dark for 2 h.
For the next series, the system named is red blood cells. The class given is cell-based, rat. Here is the method: Further, the hemolytic activity of the antimicrobial peptides was tested. EDTA-treated rat whole blood was centrifuged at 840×g for 3 minutes at 4° C. to separate blood cells and plasma. The plasma was removed, and the blood cells were washed three times with PBS having the same volume as the original blood volume by gently turning the centrifuge tube upside down. After washing, ten microliters of blood cells were diluted in PBS 2000 times to count the cells. Finally, red blood cells were diluted to 5×10^8 cells/mL in PBS. Peptides were dissolved in water and filtered through a 0.2-μm filter to make a stock solution. The peptide concentration was quantitated by UV280. The peptide solution was diluted in PBS to different concentrations (5 times of tested concentration). Twenty microliters of peptide in PBS were mixed with 80 μL of red blood cell solution in a 96-well plate (V-bottom). […] The concentration of heme contained in each well was measured by UV405 using Infinite M1000 pro (Tecan). The hemolytic activity was calculated using the following formula: Hemolytic activity=[(F−F0)/(Ft−F0)]×100% • F is UV405 of the peptide-treated sample; • F0 is UV405 of sample without peptide (negative control); • Ft is UV405 of the Triton-treated sample (positive control).

A further series is described as follows: in vitro. The class given is cell-based. The settings on record: human, HEK293 cells. On the procedure:
PepD3 was dissolved in water and filtered through a 0.2-μm filter. The peptide concentration was quantitated by UV280 to make a stock solution of 5120 μg/mL. The pepD3 stock solution was serially diluted in the serum-free DMEM. […] The serum-free DMEM medium without peptide was used as negative control. Cell viability was assessed using the Cell Titer 96 Aqueous One Solution Cell Proliferation Assay (Promega), in accordance with the manufacturer's instructions. The absorbance was measured with an Infinite M1000 pro (Tecan) at a wavelength of 490 nm. Data were normalized to the negative control to obtain the percentage of cell viability.

Series [4] deals with Xanthomonas oryzae pv. oryzae strain Xoo28. The settings on record: Xoo Xoo28; Table 7.
Series [5] relates to Agrobacterium tumefaciens strain Atu C58C1.
Series [6] has as its system Pseudomonas syringae pv. tomato strain DC3000.
Series [7] has as its system Pseudomonas syringae pv. syringae strain B728a. Conditions: Pss B728a; Table 7.
In series [8] the test system is Ralstonia solanacearum strain Pss4. Conditions: Rs Pss4; optimal minimal medium, crude peptides (Table 9).
The subject of series [9] is Pseudomonas aeruginosa ATCC 9027. Conditions: ATCC 9027.

As for Ac-WKKLKKLLKKL-NH2 [pepD3], the MBC was 13.5 µg/mL against Eco DH5α; 2.0 µg/mL in series [1]; 3.0 µg/mL in [2]; 4.4 µg/mL in series [4]; 2.4 µg/mL in series [5]; 17.3 µg/mL in [6]. Besides, the MBC in series [7] worked out at 16.0 µg/mL; in series [9] it was 8 µg/mL. Further, the MIC was 10.5 µg/mL with Eco DH5α; 2.0 µg/mL in series [1]; 3.0 µg/mL in series [2]; “— (“—” indicates no antimicrobial activity being detected at the highest peptide concentration (32 μg/mL) tested in this study.)” with Botrytis cinerea; “— (“—” indicates no antimicrobial activity being detected at the highest peptide concentration (32 μg/mL) tested in this study.)” with Cgl FST02; 3.6 µg/mL in [4]. In addition, the MIC is 9.3 µg/mL in [6], 10.0 µg/mL in [7], “— (“—” indicates no antimicrobial activity being detected at the highest peptide concentration (32 μg/mL) tested in this study.)” in series [8] and 4 µg/mL in series [9]. Moreover, the MBC/MFC result (in the series on Botrytis cinerea; in the series on Cgl FST02; in [8]) was “— (“—” indicates no antimicrobial activity being detected at the highest peptide concentration (32 μg/mL) tested in this study.)” throughout. Further, in [3], the “membranolytic effect on the cell walls of bacteria, fungal spores, and fungal mycelia” value is reported as “significant membranolytic effect”. For the same substance, in the series with red blood cells, the hemolytic activity entry is given as “very little or non-hemolytic activity”. Also, the viability at 1 h, 32 µg/mL in the series “in vitro” was > 91%.

The values above are taken from patent US20240101602A1, “ANTIMICROBIAL PEPTIDES AND METHOD OF PREVENTING OR TREATING INFECTION BY USING THE SAME” (priority 2020, published 2024).
